From US9670227B2, “Thienopyrimidine derivatives, a process for their preparation and pharmaceutical compositions containing them” (LES LABORATOIRES SERVIER, priority 2013, dated 2017) come the findings set out here.

A word on the IC50: it is the concentration that inhibits the measured activity by half.

The test system of test [1] is H929 multiple myeloma tumour line. Kind of test: In vitro cytotoxicity, Microculture Tetrazolium Assay. As to conditions: H929 cells, 48 hours exposure, MTT, read-out: IC50 (μM) MTT H929. The test is classed as cell-based. As to the method: The cytotoxicity studies were carried out on the H929 multiple myeloma tumour line.
The cells are distributed onto microplates and exposed to the test compounds for 48 hours.

The target of the next test is Mcl-1 protein (UniProtKB primary accession number: Q07820) (Homo sapiens, UniProt Q07820). The test is described as follows: Inhibition of Mcl-1 by fluorescence polarisation, Method 1. Format: binding. As to conditions: for IC50: read-out: IC50 (M) Mcl-1 FP. In short, it runs like this: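 Compounds were tested as 11-point serial dilutions at 5% final DMSO against 5 nM Mcl-1 with 1 nM fluorescein-labelled ligand in 10 mM HEPES, 150 mM NaCl, 0.05% Tween 20, pH 7.4. Relative binding potency was read by fluorescence polarisation.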
For orientation: Polarisation of emitted light reports the rotation of a fluorescent probe.

Where [2] appears, read: fluorescence polarisation test, Method 2 values are underlined in the patent (underlining not visible here).
Setting [3] is: fluorescence polarisation, Method 1, or Method 2.

Like-named read-outs stand apart in the source and are kept apart here.

Sequence of Mcl-1 protein (Q07820 whole entry): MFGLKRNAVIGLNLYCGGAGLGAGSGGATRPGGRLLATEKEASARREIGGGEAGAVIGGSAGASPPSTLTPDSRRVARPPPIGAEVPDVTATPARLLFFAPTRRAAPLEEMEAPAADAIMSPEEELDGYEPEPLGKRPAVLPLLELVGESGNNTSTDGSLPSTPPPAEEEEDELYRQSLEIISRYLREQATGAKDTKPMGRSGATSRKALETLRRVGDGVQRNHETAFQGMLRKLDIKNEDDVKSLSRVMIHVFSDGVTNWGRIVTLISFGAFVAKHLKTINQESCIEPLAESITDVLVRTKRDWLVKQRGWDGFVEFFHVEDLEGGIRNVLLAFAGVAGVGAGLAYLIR

For `CCOc1ccccc1CC(Oc1ncnc2sc(-c3ccco3)c(-c3ccc(OCCN4CCN(C)CC4)c(Cl)c3C)c12)C(=O)O` [Example 215, (2R)-2-{[(5Sa)-5-{3-chloro-2-methyl-4-[2-(4-methylpiperazin-1-yl)ethoxy]phenyl}-6-(furan-2-yl)thieno[2,3-d]pyrimidin-4-yl]oxy}-3-(2-ethoxyphenyl)propanoic acid], the IC50 was determined as 0.203 µM in test [1] (Homo sapiens, NCI-H929, 48 h) and 8e-09 M at Mcl-1 protein (setting [2]).
The matching figures for `COc1ccccc1C[C@@H](Oc1ncnc2sc(-c3ccco3)c(-c3ccc(OCCN4CCN(C)CC4)c(Cl)c3F)c12)C(=O)O` [Example 337, (2R)-2-{[5-{3-chloro-2-fluoro-4-[2-(4-methylpiperazin-1-yl)ethoxy]phenyl}-6-(furan-2-yl)thieno[2,3-d]pyrimidin-4-yl]oxy}-3-(2-methoxyphenyl)propanoic acid]: 1.87 µM and 3.8e-08 M.
As for `CC#Cc1sc2ncnc(OC(Cc3ccccc3OC)C(=O)O)c2c1-c1ccc(OCCN2CCCC2)c(Cl)c1C` [Example 468, (2R)-2-{[(5Sa)-5-{3-chloro-2-methyl-4-[2-(pyrrolidin-1-yl)ethoxy]phenyl}-6-(prop-1-yn-1-yl)thieno[2,3-d]pyrimidin-4-yl]oxy}-3-(2-methoxyphenyl)propanoic acid], the IC50 turned out to be 2.02 µM in test [1] (Homo sapiens, NCI-H929, 48 h) and 8.6e-09 M at Mcl-1 protein (setting [3]).
Consider `Cc1c(-c2c(-c3ccc(F)cc3)sc3ncnc(OC(Cc4ccccc4OCc4ccnc(-c5cccs5)c4)C(=O)O)c23)ccc(OCCN2CCN(C)CC2)c1Cl` [Example 18, (2R)-2-{[(5Sa)-5-{3-chloro-2-methyl-4-[2-(4-methylpiperazin-1-yl)ethoxy]phenyl}-6-(4-fluorophenyl)thieno[2,3-d]pyrimidin-4-yl]oxy}-3-(2-{[2-(thiophen-2-yl)pyridin-4-yl]methoxy}phenyl)propanoic acid], for which the IC50 is 0.076 µM in test [1] (Homo sapiens, NCI-H929, 48 h) and 8.3e-09 M at Mcl-1 protein (setting [2]).
Regarding `COc1ccccc1CC(Oc1ncnc2sc(-c3ccco3)c(-c3ccc(OC4CCCN(C)C4)c(Cl)c3C)c12)C(=O)O` (single isomer, unassigned) [Example 301, (2R)-2-{[(5Sa)-5-{3-chloro-2-methyl-4-[((3R or S)-1-methylpiperidin-3-yl)oxy]phenyl}-6-(furan-2-yl)thieno[2,3-d]pyrimidin-4-yl]oxy}-3-(2-methoxyphenyl)propanoic acid], the IC50 in test [1] was 0.108 µM; on Mcl-1 protein (setting [2]), 1.2e-08 M.
With `Cc1c(-c2c(-c3cncs3)sc3ncnc(OC(Cc4ccccc4)C(=O)O)c23)ccc(OCCN2CCN(C)CC2)c1Cl` [Example 512, (2R)-2-{[(5Sa)-5-{3-chloro-2-methyl-4-[2-(4-methylpiperazin-1-yl)ethoxy]phenyl}-6-(1,3-thiazol-5-yl)thieno[2,3-d]pyrimidin-4-yl]oxy}-3-phenylpropanoic acid], the IC50 in test [1] (Homo sapiens, NCI-H929, 48 h) stood at 7.42 µM; at Mcl-1 protein (setting [3]) it was 1.3e-07 M.
For the compound `CCc1sc2ncnc(OC(Cc3ccccc3)C(=O)O)c2c1-c1cc([N+](=O)[O-])c(OCCN2CCN(C)CC2)c(Cl)c1C` [Example 435, (2R)-2-[((5Sa)-5-{3-chloro-2-methyl-4-[2-(4-methylpiperazin-1-yl)ethoxy]-5-nitrophenyl}-6-ethylthieno[2,3-d]pyrimidin-4-yl)oxy]-3-phenylpropanoic acid], the IC50 is 11.1 µM in test [1] (Homo sapiens, NCI-H929, 48 h) and 3.2e-07 M on Mcl-1 protein (setting [3]).
With `CNC(=O)COc1ccccc1CC(Oc1ncnc2sc(-c3ccc(F)o3)c(-c3ccc(OCCN4CCN(C)CC4)c(Cl)c3C)c12)C(=O)O` [Example 151, (2R)-2-{[(5Sa)-5-{3-chloro-2-methyl-4-[2-(4-methylpiperazin-1-yl)ethoxy]phenyl}-6-(5-fluorofuran-2-yl)thieno[2,3-d]pyrimidin-4-yl]oxy}-3-{2-[2-(methylamino)-2-oxoethoxy]phenyl}propanoic acid], the IC50 in test [1] (Homo sapiens, NCI-H929, 48 h) came to 0.309 µM; on Mcl-1 protein (setting [2]), 3.6e-09 M.
Take `CCc1c(-c2c(-c3ccco3)sc3ncnc(OC(Cc4ccccc4OC)C(=O)O)c23)ccc(OCCN2CCN(C)CC2)c1Cl` [Example 335, (2R)-2-{[(5Sa)-5-{3-chloro-2-ethyl-4-[2-(4-methylpiperazin-1-yl)ethoxy]phenyl}-6-(furan-2-yl)thieno[2,3-d]pyrimidin-4-yl]oxy}-3-(2-methoxyphenyl)propanoic acid]: the IC50 in test [1] (Homo sapiens, NCI-H929, 48 h) worked out at 0.217 µM; on Mcl-1 protein (setting [2]), 1.2e-08 M.
Take `Cc1c(-c2c(-c3ccco3)sc3ncnc(OC(Cc4ccccc4OCc4c5ccccc5nn4C)C(=O)O)c23)ccc(OCCN2CCN(C)CC2)c1Cl` [Example 282, (2R)-2-{[(5Sa)-5-{3-chloro-2-methyl-4-[2-(4-methylpiperazin-1-yl)ethoxy]phenyl}-6-(furan-2-yl)thieno[2,3-d]pyrimidin-4-yl]oxy}-3-{2-[(2-methyl-2H-indazol-3-yl)methoxy]phenyl}propanoic acid]: the concentration for half-maximal inhibition (IC50) stood at 0.601 µM in test [1] (Homo sapiens, NCI-H929, 48 h) and 4e-08 M on Mcl-1 protein (setting [2]).
In the case of `CCc1sc2ncnc(OC(Cc3ccccc3)C(=O)O)c2c1-c1ccc(OCCCN2CCCC2=O)c(Cl)c1C` [Example 401, (2R)-2-[((5Sa)-5-{3-chloro-2-methyl-4-[3-(2-oxopyrrolidin-1-yl)propoxy]phenyl}-6-ethylthieno[2,3-d]pyrimidin-4-yl)oxy]-3-phenylpropanoic acid], the IC50 in test [1] (Homo sapiens, NCI-H929, 48 h) was found to be 22.3 µM; on Mcl-1 protein (setting [3]), 4.9e-08 M.
Take `CCc1sc2ncnc(O[C@H](Cc3ccccc3)C(=O)O)c2c1-c1ccc(OCCN(C)C)c(Cl)c1C` [Example 408, (2R)-2-[((5Ra)-5-{3-chloro-4-[2-(dimethylamino)ethoxy]-2-methylphenyl}-6-ethylthieno[2,3-d]pyrimidin-4-yl)oxy]-3-phenylpropanoic acid]: the IC50 in test [1] was found to be 15.9 µM. Moreover, at Mcl-1 protein (partial inhibitors, @ 10 uM test compound), the “percentage fluorescence polarisation inhibition, Mcl-1 FP” value is on record as 26.25% @ 10 uM.
In the case of `COc1ccccc1CC(Oc1ncnc2sc(-c3ccco3)c(-c3ccc(OC4CCNC4)c(Cl)c3C)c12)C(=O)O` (single isomer, unassigned) [Example 306, (2R)-2-({(5Sa)-5-[3-chloro-2-methyl-4-((3R or S)-pyrrolidin-3-yloxy)phenyl]-6-(furan-2-yl)thieno[2,3-d]pyrimidin-4-yl}oxy)-3-(2-methoxyphenyl)propanoic acid], the concentration for half-maximal inhibition (IC50) was determined as 1.12 µM in test [1] and 1.4e-08 M at Mcl-1 protein (setting [2]).
Take `Cc1c(-c2c(-c3ccco3)sc3ncnc(OC(Cc4ccccc4OCCOCc4ccccc4)C(=O)O)c23)ccc(OCCN2CCN(C)CC2)c1Cl` [Example 292, (2R)-3-{2-[2-(benzyloxy)ethoxy]phenyl}-2-{[(5Sa)-5-{3-chloro-2-methyl-4-[2-(4-methylpiperazin-1-yl)ethoxy]phenyl}-6-(furan-2-yl)thieno[2,3-d]pyrimidin-4-yl]oxy}propanoic acid]: the IC50 amounted to 0.192 µM in test [1] (Homo sapiens, NCI-H929, 48 h) and 9.3e-09 M at Mcl-1 protein (setting [2]).
Regarding `Cc1c(-c2c(-c3ccco3)sc3ncnc(OC(Cc4ccccc4OCCc4ccccn4)C(=O)O)c23)ccc(OCCN2CCN(C)CC2)c1Cl` [Example 289, (2R)-2-{[(5Sa)-5-{3-chloro-2-methyl-4-[2-(4-methylpiperazin-1-yl)ethoxy]phenyl}-6-(furan-2-yl)thieno[2,3-d]pyrimidin-4-yl]oxy}-3-{2-[2-(pyridin-2-yl)ethoxy]phenyl}propanoic acid], the IC50 in test [1] (Homo sapiens, NCI-H929, 48 h) is 0.18 µM; on Mcl-1 protein (setting [2]) it was 1.4e-08 M.
The matching figures for `COCCOc1ccccc1CC(Oc1ncnc2sc(-c3ccc(F)o3)c(-c3ccc(OCCN4CCN(C)CC4)c(Cl)c3C)c12)C(=O)O` [Example 194, (2R)-2-{[(5Sa)-5-{3-chloro-2-methyl-4-[2-(4-methylpiperazin-1-yl)ethoxy]phenyl}-6-(5-fluorofuran-2-yl)thieno[2,3-d]pyrimidin-4-yl]oxy}-3-[2-(2-methoxyethoxy)phenyl]propanoic acid]: 0.058 µM and 8e-09 M.
For the compound `CCCCNC(=O)COc1ccccc1CC(Oc1ncnc2sc(-c3ccc(F)o3)c(-c3ccc(OCCN4CCN(C)CC4)c(Cl)c3C)c12)C(=O)O` [Example 156, (2R)-3-{2-[2-(butylamino)-2-oxoethoxy]phenyl}-2-{[(5Sa)-5-{3-chloro-2-methyl-4-[2-(4-methylpiperazin-1-yl)ethoxy]phenyl}-6-(5-fluorofuran-2-yl)thieno[2,3-d]pyrimidin-4-yl]oxy}propanoic acid], the IC50 in test [1] (Homo sapiens, NCI-H929, 48 h) is 0.092 µM; at Mcl-1 protein (setting [2]), 7e-09 M.
Take `Cc1c(-c2c(-c3ccc(F)cc3)sc3ncnc(OC(Cc4ccccc4OCc4ccnn4CC4CC4)C(=O)O)c23)ccc(OCCN2CCN(C)CC2)c1Cl` [Example 78, (2R)-2-{[(5Sa)-5-{3-chloro-2-methyl-4-[2-(4-methylpiperazin-1-yl)ethoxy]phenyl}-6-(4-fluorophenyl)thieno[2,3-d]pyrimidin-4-yl]oxy}-3-(2-{[1-(cyclopropylmethyl)-1H-pyrazol-5-yl]methoxy}phenyl)propanoic acid]: the IC50 was 0.033 µM in test [1] (Homo sapiens, NCI-H929, 48 h) and 6.6e-09 M on Mcl-1 protein (setting [2]).
Take `COc1ccccc1CC(Oc1ncnc2sc(-c3cccc(C(F)(F)F)c3)c(-c3ccc(OCCN4CCN(C)CC4)c(Cl)c3C)c12)C(=O)O` [Example 549, (2R)-2-[((5Sa)-5-{3-chloro-2-methyl-4-[2-(4-methylpiperazin-1-yl)ethoxy]phenyl}-6-[3-(trifluoromethyl)phenyl]thieno[2,3-d]pyrimidin-4-yl)oxy]-3-(2-methoxyphenyl)propanoic acid]: the IC50 in test [1] (Homo sapiens, NCI-H929, 48 h) worked out at 1.5 µM; at Mcl-1 protein (setting [3]) it was 1.3e-07 M.
